Experimental findings from ChEMBL document CHEMBL2163313, “Shape-based reprofiling of FDA-approved drugs for the H₁ histamine receptor” (J Med Chem, 2012) are described below.

A word on the IC50: it is the concentration that gives 50% inhibition.

The test system of one experiment is HeLa. The experiment in a line: Antagonist activity at P2Y receptor in human HeLa cells assessed as inhibition of ATP-induced Ca2+ release at 100 uM by using fura-2AM-based fluorescence assay. In kind it is functional, cell-based.
For experiment [1], the target named is Histamine H1 receptor (Rattus norvegicus, UniProt P31390). In kind it is cell membranes, Sprague-Dawley, Brain, Membrane.
The target in experiment [2] is T1, Histamine H1 receptor (Homo sapiens, UniProt P35367). The experiment in a line: Antagonist activity at histamine H1 receptor in human HeLa cells assessed as inhibition of histamine-induced Ca2+ release at 100 uM by using fura-2AM-based fluorescence assay. The experiment is classed as functional, cell-based.
In experiment [3] the target is T1, Histamine H1 receptor. The experiment in a line: Antagonist activity at H1 receptor in human HeLa cells assessed as inhibition of histamine-induced Ca2+ release by using fura-2AM-based fluorescence assay. The experiment is classed as functional, cell-based.

Calls of active or inactive are those of the source. The rule behind the calls is not given here.

T1 sequence (P35367 whole entry): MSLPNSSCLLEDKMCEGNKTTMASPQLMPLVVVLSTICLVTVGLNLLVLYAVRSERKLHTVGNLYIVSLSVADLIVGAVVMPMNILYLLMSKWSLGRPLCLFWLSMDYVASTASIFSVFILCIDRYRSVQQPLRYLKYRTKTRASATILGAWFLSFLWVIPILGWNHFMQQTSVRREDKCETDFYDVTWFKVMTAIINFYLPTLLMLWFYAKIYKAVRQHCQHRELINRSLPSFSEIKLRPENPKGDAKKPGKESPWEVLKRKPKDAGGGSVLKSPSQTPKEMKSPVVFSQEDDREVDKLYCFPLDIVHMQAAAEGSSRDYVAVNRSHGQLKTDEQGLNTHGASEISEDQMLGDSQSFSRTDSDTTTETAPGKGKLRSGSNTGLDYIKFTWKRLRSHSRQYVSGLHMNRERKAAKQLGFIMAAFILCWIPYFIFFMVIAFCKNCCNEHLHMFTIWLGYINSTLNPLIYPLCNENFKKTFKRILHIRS
Sequence of Histamine H1 receptor (Rattus norvegicus, UniProt P31390) (P31390 whole entry): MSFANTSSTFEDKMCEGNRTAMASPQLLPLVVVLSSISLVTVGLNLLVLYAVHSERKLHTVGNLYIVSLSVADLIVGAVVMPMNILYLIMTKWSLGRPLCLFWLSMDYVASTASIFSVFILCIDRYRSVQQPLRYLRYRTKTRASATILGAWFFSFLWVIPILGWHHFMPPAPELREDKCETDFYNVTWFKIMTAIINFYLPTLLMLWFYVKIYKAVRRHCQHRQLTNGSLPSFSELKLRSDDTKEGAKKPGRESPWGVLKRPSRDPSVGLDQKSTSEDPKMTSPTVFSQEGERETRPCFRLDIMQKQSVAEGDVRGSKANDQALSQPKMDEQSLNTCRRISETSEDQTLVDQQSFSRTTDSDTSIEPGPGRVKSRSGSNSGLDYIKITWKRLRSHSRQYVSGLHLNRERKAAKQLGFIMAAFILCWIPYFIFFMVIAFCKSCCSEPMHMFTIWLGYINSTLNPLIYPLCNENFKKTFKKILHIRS

Turning to `NC(=O)OCC(COC(N)=O)c1ccccc1`, in the experiment on HeLa, the inhibition entry was “inactive”.
Regarding `OC(CCN1CCCC1)(c1ccccc1)C1CCCCC1` (centres undefined) [PROCYCLIDINE], at Histamine H1 receptor [1], 6.76 µM corresponded to half-maximal inhibition (IC50).
`OC(CCN1CCCCC1)(c1ccccc1)C1CC2C=CC1C2` (centres undefined): the inhibition result at Histamine H1 receptor [2] and with HeLa was “Active” in each case.
For the molecule `CN1[C@@H](CC(=O)c2ccccc2)CCC[C@H]1C[C@H](O)c1ccccc1` [LOBELINE], the IC50 against Histamine H1 receptor [1] is 11.2 µM; on Histamine H1 receptor [3], 44.7 µM.
With `CCN(CC)CCOC(=O)C(c1ccccc1)c1ccccc1` [ADIPHENINE], the IC50 was 17 µM on Histamine H1 receptor [1] and 112 µM on Histamine H1 receptor [3].
At Histamine H1 receptor [1], `CN(C)CC/C=C1/c2ccccc2Sc2ccc(Cl)cc21` [CHLORPROTHIXENE] showed an IC50 of 0.00107 µM.
